In assay [1] the target is T1, Ret/MEN2B(M918T) (Homo sapiens, UniProt P07949, M918T).
T1 construct: endogenous in cells; host or cells: MZ-CRC-1 (human medullary thyroid carcinoma)
The experiment in a line: Ret autophosphorylation and expression in MZ-CRC-1 cells (Western blotting). Type of assay: cell-based. Particulars: 24 h. The method, then:
FIG. 2. Effects of Cpd1 on human MTC cell lines harboring MEN2-associated RET mutants. A) Inhibition of Ret autophosphorylation. TT and MZ-CRC-1 cells, expressing respectively RET/MEN2A(C634W) and RET/MEN2B(M918T), were treated with the indicated concentrations of Cpd1, for 24 h. Control cells (C) received the solvent. Whole cell extracts were processed for Western blotting and probed with anti-pTyr and anti-Ret antibodies. […] B) Antiproliferative effect. TT and MZ-CRC-1 cells were treated with increasing concentrations of Cpd 1 for 7 days and then counted with a Coulter Counter.
The following human medullary thyroid carcinoma (MTC) cell lines were used in this study. The TT cell line derived from a MEN2A-associated MTC characterized by expression of the RET oncogene carrying the mutation C634W. […]
For whole-cell extract preparation, cells were lysed in sodium dodecyl sulfate (SDS) sample buffer (62.5 mM Tris-HCl (pH 6.8), 2% SDS) with 1 mM PMSF, 10 μg/ml pepstatin, 12.5 μg/ml leupeptin, 100 KIU aprotinin, 1 mM sodium orthovanadate, 1 mM sodium molybdate. Protein concentration was determined in appropriately diluted aliquots by the bicinchionic acid (BCA) method (Pierce, Rockford, Ill.), then samples were adjusted to a final concentration of 10% glycerol, 5% β-mercaptoethanol, 0.001% bromophenol blue. […]
(In general: A western blot detects proteins with antibodies after separation by electrophoresis.)

In assay [2] the test system is PDGF-R. The experiment in a line: PDGF-R autophosphorylation and expression in whole cells (2N5A, Swiss 3T3). Type of assay: cell-based, mouse. On the procedure: FIG. 5. Inhibition of PDGF-R autophosphorylation and expression in whole cells by Cpd 1. A): 2N5A cells (NIH3T3 transformed by the COL1A1/PDGFB rearrangement generating autocrine stimulation of PDGF-R) were treated with Cpd 1 at the indicated concentrations, for 72 h. Cell extracts were immunoprecipitated with anti-PDGF-R and subjected to Western blotting with anti-pTyr or anti-PDGF-R antibodies. B): Swiss 3T3 cells were serum starved for 24 h and then treated with Cpd1 at the indicated concentrations, for 18 h. After stimulation with 1 nM PDGF for 5 min, whole cell lysates were prepared and subjected to Western blotting with anti-pTyr or anti-PDGF-R. Protein loading by anti-actin blot is shown.
The following human medullary thyroid carcinoma (MTC) cell lines were used in this study. The TT cell line derived from a MEN2A-associated MTC characterized by expression of the RET oncogene carrying the mutation C634W. The MZ-CRC-1 cell line derived from MEN2B-associated MTC characterized by expression of the RET oncogene carrying the mutation M918T. TT cells were cultivated in Ham's F12 medium (BioWhittaker, Verviers, Belgium) supplemented with 15% fetal calf serum (FCS) (Life Technologies, Inc., Gaithersburg, Md.) whereas MZ-CRC-1 cells were grown in Dulbecco's modified Eagle's medium (DMEM) (BioWhittaker) supplemented with 10% FCS. The human papillary thyroid carcinoma cell line TPC-1 which was used as a model of Met overexpression, was routinely cultivated in DMEM with 10% FCS. N592 cells, derived from a human SCLC, were characterized by Kit activation through autocrine stimulation by the SCF ligand. N592 cells were cultured in RPMI 1640 supplemented with 10% FCS. The mouse SWISS3T3 and NIH3T3 fibroblasts were cultured in DMEM with 10% calf serum (Colorado Serum Company, Denver, Colo.). In addition, NIH3T3 cells transfected with different oncogenes were used. NIH3T3^MEN2A transfectants express the short isoform of the RET-MEN2A (C634R) oncogene; NIH3T3^KITΔ559 cells express KIT carrying the activating mutation Δ559 found in GISTs; NIH3T3^FGFR3(Y373C) express the FGF-R3 gene carrying the activating mutation Y373C found in a human multiple myeloma cell line. 2N5A cells are NIH3T3 cells-transformed by the COL1A1/PDGFB rearrangement generating autocrine stimulation of PDGF-R. All NIH3T3 transfectants were maintained in DMEM plus 5% calf serum in a 10% CO2 atmosphere.
For whole-cell extract preparation, cells were lysed in sodium dodecyl sulfate (SDS) sample buffer (62.5 mM Tris-HCl (pH 6.8), 2% SDS) with 1 mM PMSF, 10 μg/ml pepstatin, 12.5 μg/ml leupeptin, 100 KIU aprotinin, 1 mM sodium orthovanadate, 1 mM sodium molybdate. Protein concentration was determined in appropriately diluted aliquots by the bicinchionic acid (BCA) method (Pierce, Rockford, Ill.), then samples were adjusted to a final concentration of 10% glycerol, 5% β-mercaptoethanol, 0.001% bromophenol blue.
For immunoprecipitation experiments, cells were treated with Cpd1 or solvent for the indicated times. Cell monolayers were rinsed twice with cold phosphate-buffered saline plus 0.1 mM sodium orthovanadate and then left for 20 min on ice in lysis buffer (50 mM HEPES pH7.6, 150 mM NaCl, 10% glycerol, 1% Triton X-100, 1.5 mM MgCl2, 1 mM EGTA, 100 mM NaF, 10 mM sodium pyrophosphate, 10 μg/ml antipain, 20 μg/ml chymostatin, 10 μg/ml E64, 1 mg/ml pefabloc SC). […] Protein concentration was determined by the BCA reagent (Pierce). […]

Assay [3] deals with T2, FGF-R3 mutant Y373C (Homo sapiens, UniProt P22607, Y373C).
T2 construct: expressed in transfected cells; host or cells: NIH3T3 (mouse fibroblasts)
The experiment in a line: FGF-R3 (Y373C) autophosphorylation and expression in NIH3T3 transfectants. Type of assay: cell-based. Particulars: 72 h. The method, then:
FIG. 6. Inhibition of autophosphorylation and expression of FGF-R1 and FGF-R3 receptors in whole cells by Cpd1. A): Swiss3T3 cells were serum starved for 24 h and then treated with Cpd1 at the indicated concentrations, for 18 h. After stimulation with 100 ng/ml FGF for 5 min, whole cell lysates were prepared and subjected to Western blotting with anti-pTyr or anti-FGF-R1. Protein loading by anti-actin blot is shown. B): NIH3T3 transformed by the FGF-R3 mutant Y373C were treated with the indicated concentrations, for 72 h. Cell extracts were immunoprecipitated with anti-FGF-R3 and then subjected to Western blotting with anti p-Tyr or anti-FGF-R3.
The following human medullary thyroid carcinoma (MTC) cell lines were used in this study. The TT cell line derived from a MEN2A-associated MTC characterized by expression of the RET oncogene carrying the mutation C634W. The MZ-CRC-1 cell line derived from MEN2B-associated MTC characterized by expression of the RET oncogene carrying the mutation M918T. […]
For immunoprecipitation experiments, cells were treated with Cpd1 or solvent for the indicated times. […] Protein concentration was determined by the BCA reagent (Pierce). […]

Assay [4] relates to NIH3T3 cells transformed with the RET/PTC1 oncogene. Particulars: cited from earlier work.

Each structure is given as a SMILES string.

T2 sequence (P22607 23-806 Y373C): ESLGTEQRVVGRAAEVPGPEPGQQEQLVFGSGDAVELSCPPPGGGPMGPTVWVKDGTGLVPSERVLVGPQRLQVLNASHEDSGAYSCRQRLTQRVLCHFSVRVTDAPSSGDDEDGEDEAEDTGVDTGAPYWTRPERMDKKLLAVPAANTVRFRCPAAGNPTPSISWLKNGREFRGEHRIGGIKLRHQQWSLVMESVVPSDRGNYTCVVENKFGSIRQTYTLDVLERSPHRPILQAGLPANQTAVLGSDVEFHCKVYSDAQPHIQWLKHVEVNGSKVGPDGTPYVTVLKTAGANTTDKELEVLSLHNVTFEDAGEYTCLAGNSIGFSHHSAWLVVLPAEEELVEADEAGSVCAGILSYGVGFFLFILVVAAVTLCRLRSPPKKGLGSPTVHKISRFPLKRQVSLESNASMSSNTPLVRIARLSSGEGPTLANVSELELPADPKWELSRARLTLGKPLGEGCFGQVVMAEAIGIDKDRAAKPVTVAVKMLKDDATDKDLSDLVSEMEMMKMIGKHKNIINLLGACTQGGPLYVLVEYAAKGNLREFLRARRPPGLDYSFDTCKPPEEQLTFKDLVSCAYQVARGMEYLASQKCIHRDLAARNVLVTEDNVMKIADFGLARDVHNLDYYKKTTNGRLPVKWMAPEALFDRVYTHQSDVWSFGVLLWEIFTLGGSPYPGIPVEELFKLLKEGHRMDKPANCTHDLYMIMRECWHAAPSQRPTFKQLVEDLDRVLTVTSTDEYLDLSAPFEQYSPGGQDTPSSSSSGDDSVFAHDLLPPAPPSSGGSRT
T1 sequence (P07949 29-1114 M918T): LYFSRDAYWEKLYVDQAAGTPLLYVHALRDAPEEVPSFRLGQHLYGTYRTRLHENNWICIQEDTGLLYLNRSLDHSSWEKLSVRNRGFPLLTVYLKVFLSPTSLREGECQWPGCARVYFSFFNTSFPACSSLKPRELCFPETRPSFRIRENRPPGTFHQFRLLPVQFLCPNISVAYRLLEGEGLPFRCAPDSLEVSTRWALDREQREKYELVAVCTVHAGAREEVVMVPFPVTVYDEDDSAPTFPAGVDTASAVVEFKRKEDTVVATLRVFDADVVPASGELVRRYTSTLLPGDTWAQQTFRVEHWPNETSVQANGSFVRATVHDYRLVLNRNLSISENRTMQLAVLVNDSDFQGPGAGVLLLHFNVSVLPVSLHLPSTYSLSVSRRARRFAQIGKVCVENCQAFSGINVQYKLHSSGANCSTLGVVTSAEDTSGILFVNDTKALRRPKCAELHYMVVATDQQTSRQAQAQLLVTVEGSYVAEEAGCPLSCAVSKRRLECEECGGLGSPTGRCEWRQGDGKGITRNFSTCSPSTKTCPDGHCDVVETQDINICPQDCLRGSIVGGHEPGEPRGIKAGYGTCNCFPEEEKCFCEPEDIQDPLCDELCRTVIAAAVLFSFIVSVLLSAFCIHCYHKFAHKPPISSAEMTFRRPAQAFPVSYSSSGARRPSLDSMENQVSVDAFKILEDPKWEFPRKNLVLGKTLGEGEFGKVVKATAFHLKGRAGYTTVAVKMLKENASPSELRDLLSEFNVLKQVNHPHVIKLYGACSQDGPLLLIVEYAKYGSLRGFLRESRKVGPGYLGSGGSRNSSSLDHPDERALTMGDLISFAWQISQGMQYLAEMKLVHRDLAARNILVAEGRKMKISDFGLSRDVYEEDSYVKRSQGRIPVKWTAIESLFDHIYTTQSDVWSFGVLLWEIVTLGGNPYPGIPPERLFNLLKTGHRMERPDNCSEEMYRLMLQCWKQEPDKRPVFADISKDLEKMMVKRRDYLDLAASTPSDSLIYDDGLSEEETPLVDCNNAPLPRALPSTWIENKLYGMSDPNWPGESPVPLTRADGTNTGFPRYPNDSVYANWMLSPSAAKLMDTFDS

On to `COc1cc2c(cc1OC)/C(=C\c1ccc(O)cc1)C(=O)N2` [Cpd 1, (E)-1,3-dihydro-5,6-dimethoxy-3-[(4-hydroxyphenyl)methylene]-2H-indol-2-one], for which the “Tyrosine phosphorylation of Ret receptor” value in assay [1] is given as “dose-dependent inhibition”. Moreover, the Ret receptor expression result in assay [1] (highest concentrations) is recorded as “reduced expression”. Moreover, the PDGF-R tyrosine phosphorylation entry in assay [2] (2N5A cells (autocrine stimulation), 72 h) is on record as “dose-dependent drug-induced inhibition”; in assay [2] (Swiss 3T3 cells serum starved, 18 h, 1 nM PDGF 5 min), “dose-dependent drug-induced inhibition”. The PDGF-R expression result in assay [2] (2N5A cells, 72 h) is reported as “dose-dependent drug-induced inhibition”; in assay [2] (Swiss3T3 cells, 18 h) it was “dose-dependent drug-induced inhibition”. In assay [2] (whole cells (FIG. 5)), the “Concentration causing full inhibition of PDGF-R phosphorylation” value is given as “higher than 15 μM”. Besides, the “FGF-R3 (Y373C) expression” value in assay [3] is listed as “dose-dependent inhibition”. For the same molecule, in assay [3], the “FGF-R3 (Y373C) tyrosine phosphorylation” value is “dose-dependent inhibition”. The “Reverting the morphologic phenotype” value in assay [4] is listed as “particularly effective”.

These data come from US20090130229A1, “Antitumor uses of compound” (Cell Therapeutics, Inc., priority 2002, published 2009).
